Measured values: US20090233881A1, “COMPOUNDS HAVING ANTI-CANCER PROPERTIES” (Vital Health Sciences Pty. Ltd, priority 2005, published 2009)
“And” between values parts separate entries of the source, which are not always exact repeats. Equal values may be shown once.

Tests used:
[1] = system: DU-145 prostate cancer cells; assay: DU-145 cell growth assay (Coulter cell counting); format: cell-based; conditions: DU-145, 12 days; for Total viable cells/well: single well
Method: Culture of stock cells. DU-145 prostate cancer cells were purchased from American Type Culture Collection (Manassas, Va., USA). Stock cells were grown in Dulbecco's Modified Eagle Medium (DMEM) (Gibco BRL, Grand Island N.Y.) supplemented with 5% FBS (Fetal Bovine Serum, Gibco BRL, Grand Island N.Y.) in a humidified atmosphere of 5% CO2 in air at 37° C. Cells were subcultured every 1-2 times a week.
Cell growth assay. Cells were trypsinized from the stock plates by treatment with trypsin/versene, added to an equal volume of phenol red-free RPMI-1640 (Gibco BRL, Grand Island N.Y.) supplemented with 5% dextran-charcoal treated fetal calf serum (DCFCS). Cells were resuspended to a cell count of 0.1×10^5 cells/ml with the use of a haemocytometer and plated in monolayer in 0.5 ml aliquots into 24-well plastic culture dishes (Costar, Corning USA). After 24 hours, cells were treated with appropriate concentrations (see table) of γ-tocopheryl phosphate mixture (γ-TP) (Vital Health) and Lycopene (Sigma) or combinations of Lycopene and γ-TP diluted in phenol red-free RPMI medium 1640 supplemented with 5% DCFCS. The culture medium was changed every 3-4 days. The combination treatment contained lycopene and γ-TP in a 1:1 ratio by molecular weight/mass with lycopene varying from 5 ug/ml-40 ug/ml.
Cell counting. The cells were washed twice with 0.9% NaCl to remove non-adherent dead cells and were then lysed in 0.5 ml 2.5 mM Hepes buffer/[…] MgCl2 plus two drops of zapoglobin II lytic reagent (Beckman Coulter, Coulter Corp USA) for 5-15 minutes. The nuclei released were suspended in isoton III (Beckman Coulter, Coulter Corp, USA) and counted on a Coulter counter with particle size set at >5 μm. All cell counts were carried out in triplicate on triplicate well contents. The results were calculated as the average ±standard error. P-values were determined using Independent samples T-Test (by standard software packages SPSS).

[2] = system: MCF-7 breast cancer cells; assay: MCF-7 breast cancer cell line proliferation assay (MTS); format: cell-based, human; conditions: for activity on MCF-7 proliferation (MTS; quantity not given): MCF-7, 72 hours, no E
Method: MCF-7 breast cancer cell growth conditions: Cells were grown in 75 cm^2 plastic tissue cell flasks as monolayer in Dulbecco's Modified Eagle Medium (DMEM), supplemented with 10% FBS in a humidified atmosphere of 5% CO2 in 95% air at 37° C. Cells were sub-cultured at bi-weekly intervals by suspension with 0.06% trypsin/0.02% EDTA (pH 7.3).
MCF-7 breast cancer cell line proliferation assays (MITS Assays): Cells were trypsinised (as performed during sub-culturing) in DMEM, supplemented with 10% FBS. Cells were re-suspended to a cell count of 10,000 cells/ml, with the use of a haemocytometer. Cells were seeded at 1,000 cells/well or by the addition of 100 μl of the cell suspension into 96-well cell culture plates. The cells were left overnight and then were synchronised (by serum starving for 24 hours), prior to the start of experiments.
After the cells were synchronised the cells were treated with the appropriate concentrations of the treatments, prepared in 100% ethanol (2, 5, 10, 15, 20, 30 & 50 μg/ml), they were added to RPMI medium 1640 supplemented with 10% dextran-charcoal treated FCS (DCFBS). […] After 72 hours the plates are incubated with MTS reagent (as described in Example 1) for 1 hr. The plate was read in a spectrophotometer at 490 nm. There were 8 replicates for each compound tested (at the various concentrations shown below).
Treatment abbreviations: GT=gamma-tocopherol; GTP=gamma-tocopheryl phosphate; GT2P=gamma-di-tocopheryl phosphate, GTPM=gamma-tocopheryl phosphate mixture (combination of GTP and GT2P).

[3] = system: MCF-7 breast cancer cells; assay: as above; format: cell-based, human; conditions: MCF-7, 72 hours, no E, concentration 1

Compound	Average total viable cells/well ([1]; Lycopene 5 ug/ml)	Total viable cells/well ([1]; Lycopene 5 ug/ml)	Average total viable cells/well ([1]; Lycopene 10 ug/ml)	Total viable cells/well ([1]; Lycopene 10 ug/ml)	Average total viable cells/well ([1]; Lycopene 15 ug/ml)	Total viable cells/well ([1]; Lycopene 15 ug/ml)	Average total viable cells/well ([1]; Lycopene 20 ug/ml)	Average total viable cells/well ([1]; Lycopene 25 ug/ml)	Total viable cells/well ([1]; Lycopene 25 ug/ml)	Average total viable cells/well ([1]; Lycopene 30 ug/ml)	activity on MCF-7 proliferation (MTS; quantity not given) ([2]; concentration 2 μg/ml)	activity on MCF-7 proliferation (MTS; quantity not given) ([2]; concentration 5 μg/ml)	activity on MCF-7 proliferation (MTS; quantity not given) ([2]; concentration 10 μg/ml)	activity on MCF-7 proliferation (MTS; quantity not given) ([2]; concentration 15 μg/ml)	activity on MCF-7 proliferation (MTS; quantity not given) ([2]; concentration 20 μg/ml)	activity on MCF-7 proliferation (MTS; quantity not given) ([2]; concentration 30 μg/ml)	activity on MCF-7 proliferation (MTS; quantity not given) ([2]; concentration 50 μg/ml)	activity on MCF-7 proliferation (MTS; quantity not given) [3]	relative potency as anti-cancer treatment ([2]; MCF-7)
CC(C)=CCC/C(C)=C/C=C/C(C)=C/C=C/C(C)=C/C=C/C=C(C)/C=C/C=C(C)/C=C/C=C(\C)CCC=C(C)C [lycopene]	4.367 ×10^5 cells/well	4.392 ×10^5 cells/well and 4.383 ×10^5 cells/well and 4.325 ×10^5 cells/well	3.712 ×10^5 cells/well	3.555 ×10^5 cells/well and 3.869 ×10^5 cells/well	3.716 ×10^5 cells/well	3.704 ×10^5 cells/well and 3.727 ×10^5 cells/well	0.276 ×10^5 cells/well	1.478 ×10^5 cells/well	1.759 ×10^5 cells/well and 1.196 ×10^5 cells/well	0.120 ×10^5 cells/well									
Cc1c(OP(=O)(O)O)cc2c(c1C)O[C@](C)(CCC[C@H](C)CCC[C@H](C)CCCC(C)C)CC2 [GTP, gamma-tocopheryl phosphate]											5.624	4.807	25.102	43.512	64.719	81.81	109.928	7.32	
Cc1c(O)cc2c(c1C)O[C@](C)(CCC[C@H](C)CCC[C@H](C)CCCC(C)C)CC2 [GT, gamma-tocopherol]											15.685	36.36	68.689	56.82	79.766	82.743	62.622	−6.104	least potent with limited activity
Cc1c(OP(=O)(O)Oc2cc3c(c(C)c2C)O[C@](C)(CCC[C@H](C)CCC[C@H](C)CCCC(C)C)CC3)cc2c(c1C)O[C@](C)(CCC[C@H](C)CCC[C@H](C)CCCC(C)C)CC2 [GT2P, gamma-di-tocopheryl phosphate]											4.91	31.07	39.471	53.126	64.557	98.43	126.506	7.283	
